Measurements published in PMC8869358, “High-Throughput Chemical Screening and Structure-Based Models to Predict hERG Inhibition” (Biology, 2022).
Where two headings read alike, the source gives them in different places.

Tests used:
hERG [1] = target: T1, hERG (Homo sapiens, UniProt Q12809); assay: in vitro; conditions: (-LOG10(IC50), µM)
hERG [2] = target: T1, hERG; assay: Tox21 qHTS FluxOR thallium flux assay in hERG-U2OS cells
Procedure: The hERG-U2OS cell line was purchased from Codex BioSolution, Inc. (Gaithersburg, MD, USA). All the cell culture reagents were obtained from Invitrogen (Life Technologies, Madison, WI, USA). The hERG-U2OS cells were cultured in DMEM with Glutamax containing 10% fetal bovine serum (FBS), 1% of Non-Essential AA (NEAA), 50 U/mL penicillin, 50 μg/mL streptomycin, and 1 µg/mL puromycin. The cells were maintained at 37 °C under a humidified atmosphere and 5% CO2.
A FluxORTM thallium flux assay was performed in hERG-U2OS cells with stable hERG expression, as previously described. In this assay, thallium ions are used as surrogates for K^+ ions to monitor the activity of the hERG K^+ channel. […] The hERG-U2OS cells suspended in culture medium were dispensed at 1000 cells/well/3μL into 1536-well, black wall/clear-bottom plates using a Multidrop Combi dispenser (Thermo Fisher, Waltham, MA, USA). After the assay plates were incubated at 37 °C overnight, 3 μL of Loading Buffer provided from FluxOR II Potassium Ion Channel Assay Kit (Life Technologies, Carlsbad, CA, USA) was added to each assay well. The assay plates were then incubated at room temperature in the dark for 1 h, followed by the addition of 23 nL of compound, dissolved in DMSO, DMSO only, or positive control, to the assay plate. Each compound was tested at 15 concentrations in three independent runs.
Multiple criteria were used to select each small molecule, including properties allowing for high-throughput screens (HTS) (molecular weight, volatility, solubility, logP), commercial availability, possible and definite environmental hazards, or exposure concerns, and cost. A diverse group of 88 compounds was selected to be used as an internal control and plated in duplicate on each library plate to perform reproducibility analysis as well as to determine positional plate effects. Each compound in the Tox21 10K compound library was subjected to analytical chemistry quality control (QC), which provides information on the purity and identity of each sample. […] The compounds were serially diluted in Dimethylsulfoxide (DMSO) to 15 concentrations in 1536-well plates, covering a concentration range of up to four orders of magnitude.
Many of these chemicals were sourced independently by NTP/EPA/NCATS from different vendors or the same vendor but different batches; these chemicals have been tested in replicates. Compound concentration-response data analysis was performed as previously described. […] The dataset was then corrected using the DMSO-only compound plates at the beginning and end of the compound plate stack by applying an in-house pattern correction algorithm. The half-maximum inhibition values (IC50) for each compound and maximum response (efficacy) values were obtained by fitting the concentration-response curves of each compound to a four-parameter Hill equation [24]. […] To identify chemicals with the potential to inhibit the hERG channel, we selected only antagonist chemicals with curve rank −5 to −9.

hERG [3] = target: T1, hERG; assay: cell-based; conditions: (-LOG10(IC50), µM)
[4] = hERG-U2OS cells, thallium flux, qHTS, result in words

T1 sequence (Q12809 whole entry): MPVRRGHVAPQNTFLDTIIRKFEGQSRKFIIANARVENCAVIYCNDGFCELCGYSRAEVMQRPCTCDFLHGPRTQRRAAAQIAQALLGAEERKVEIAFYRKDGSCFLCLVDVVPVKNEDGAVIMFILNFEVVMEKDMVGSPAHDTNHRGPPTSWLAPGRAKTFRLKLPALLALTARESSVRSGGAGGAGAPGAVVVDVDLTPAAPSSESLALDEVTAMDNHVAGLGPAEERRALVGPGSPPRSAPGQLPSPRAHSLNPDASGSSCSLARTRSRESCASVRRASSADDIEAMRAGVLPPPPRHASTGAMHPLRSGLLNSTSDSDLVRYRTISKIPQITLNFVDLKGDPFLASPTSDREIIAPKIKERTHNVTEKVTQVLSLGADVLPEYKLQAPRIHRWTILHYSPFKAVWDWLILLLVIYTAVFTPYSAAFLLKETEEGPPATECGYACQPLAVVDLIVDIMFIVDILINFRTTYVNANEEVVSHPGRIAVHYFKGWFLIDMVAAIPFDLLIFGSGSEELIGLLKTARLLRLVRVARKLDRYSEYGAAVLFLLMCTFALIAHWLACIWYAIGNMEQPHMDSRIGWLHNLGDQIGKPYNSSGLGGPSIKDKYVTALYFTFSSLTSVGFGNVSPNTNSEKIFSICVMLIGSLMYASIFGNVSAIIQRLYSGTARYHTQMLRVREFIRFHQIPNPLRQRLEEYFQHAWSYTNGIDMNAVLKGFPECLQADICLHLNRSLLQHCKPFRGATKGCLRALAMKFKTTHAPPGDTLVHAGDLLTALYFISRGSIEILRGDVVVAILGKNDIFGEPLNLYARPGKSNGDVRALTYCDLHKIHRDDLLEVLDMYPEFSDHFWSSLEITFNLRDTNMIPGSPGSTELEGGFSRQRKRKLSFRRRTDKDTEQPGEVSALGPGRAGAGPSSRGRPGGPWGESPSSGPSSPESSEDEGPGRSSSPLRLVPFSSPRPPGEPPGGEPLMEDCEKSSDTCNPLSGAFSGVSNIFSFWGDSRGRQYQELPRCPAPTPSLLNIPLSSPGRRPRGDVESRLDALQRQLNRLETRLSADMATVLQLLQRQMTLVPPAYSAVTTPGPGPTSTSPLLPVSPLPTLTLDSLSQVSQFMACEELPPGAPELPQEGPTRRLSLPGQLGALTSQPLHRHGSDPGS

Row | Structure (SMILES) | IC50 (hERG [1]; herg fluxor ii thallium influx) [µM] | IC50 (hERG [3]) [µM] | activity outcome for hERG inhibition in the assay (hERG [2]; [4]) | further results
1 | CCCCCCCCCCCC[N+](C)(C)Cc1ccccc1 [Benzyldimethyldodecylammonium chloride] | 1.21 | – | – | –
2 | CCCCCCCCCCCC[N+](C)(C)Cc1ccccc1 [Benzyldodecyldimethylammonium bromide] | – | – | – | IC50 (hERG [1]; fluxor ii thallium influx herg): 1.25 µM
3 | CC(=O)[O-].CC(=O)[O-].[Hg+2] [Mercury(II) acetate] | 6.16 | – | – | –
4 | CCNc1cc2[o+]c3cc(NCC)c(C)cc3c(-c3ccccc3C(=O)OCC)c2cc1C [Rhodamine 6G] | 2.45 | – | – | –
5 | CC1(C)C2(Cl)C(Cl)C(Cl)C(Cl)(C(Cl)Cl)C1(Cl)C2Cl (stereo not drawn) [Strobane] | 41.2 | – | – | –
6 | ClC1=C(Cl)C2(Cl)C3C(Cl)C(Cl)CC3C1(Cl)C2(Cl)Cl (stereo not drawn) [Technical chlordane] | 28.5 | – | – | –
7 | C=C1C(CCl)(CCl)C2(Cl)C(Cl)C(Cl)C1(Cl)C2(Cl)Cl (stereo not drawn) [Toxaphene] | – | – | – | IC50 (hERG [1]; fluxor ii thallium influx herg): 35.6 µM
8 | c1cc[c]([Sb]([c]2ccccc2)[c]2ccccc2)cc1 [Triphenylstibine] | 17.4 | – | – | –
9 | C=CCC1=C(C)C(OC(=O)C2C(C=C(C)C)C2(C)C)CC1=O (stereo not drawn) [allethrin] | – | 32.3 | – | activity outcome for hERG inhibition in the assay (hERG [2]): inhibitory activity
10 | CCNc1ccc(C(=C2C=CC(=[N+](CC)CC)C=C2)c2ccc(N(CC)CC)cc2)c2ccccc12.[Cl-] [basic blue 7] | – | 0.526 | most active | –
11 | CC1(C)CNC(=NN=C(/C=C/c2ccc(C(F)(F)F)cc2)/C=C/c2ccc(C(F)(F)F)cc2)NC1 [hydramethylnon] | – | 0.436 | most active | –
12 | Cl[C@H]1[C@H](Cl)[C@@H](Cl)[C@@H](Cl)[C@H](Cl)[C@H]1Cl [lindane] | – | 45 | – | activity outcome for hERG inhibition in the assay (hERG [2]): inhibitory activity
13 | C#CCC1=C(C)C(OC(=O)C2C(C=C(C)C)C2(C)C)CC1=O (stereo not drawn) [prallethrin] | – | 46.8 | inhibitory activity | –
14 | CCCCCCCC[N+](CCCCCCCC)(CCCCCCCC)CCCCCCCC.[Br-] [tetra-N-octylammonium bromide] | – | 0.745 | – | activity outcome for hERG inhibition in the assay (hERG [2]): most active
15 | CCCCCCCC[P+](CCCCCCCC)(CCCCCCCC)CCCCCCCC.[Br-] [tetraoctylphosphonium bromide] | – | 0.402 | most active | –
16 | CCCCCCCCCCCCCC[P+](CCCC)(CCCC)CCCC.[Cl-] [tributyltetradecylphosphonium chloride] | – | 0.334 | most active | –
